Key:
Assay in all cases: KINOMEscan competition binding
Details in all cases: compound 10.0 µM
AKT3 (human) = AKT3 (human) (UniProt Q9Y243)
ALK (human) = ALK (human) (UniProt Q9UM73)
BMPR2 (human) = BMPR2 (human) (UniProt Q13873)
CDK15 (human) = CDK15 (human) (UniProt Q96Q40)
CDKL5 (human) = CDKL5 (human) (UniProt O76039)
CSK (human) = CSK (human) (UniProt P41240)
[1] = test system: EGFR (human), P00533 [L858R]
EIF2AK1 (human) = EIF2AK1 (human) (UniProt Q9BQI3)
EIF2AK2 (human) = EIF2AK2 (human) (UniProt P19525)
ERBB3 (human) = ERBB3 (human) (UniProt P21860)
GSK3A (human) = GSK3A (human) (UniProt P49840)
GSK3B (human) = GSK3B (human) (UniProt P49841)
LATS2 (human) = LATS2 (human) (UniProt Q9NRM7)
LIMK1 (human) = LIMK1 (human) (UniProt P53667)
MAP2K7 (human) = MAP2K7 (human) (UniProt O14733)
MAP3K15 (human) = MAP3K15 (human) (UniProt Q6ZN16)
MAP3K5 (human) = MAP3K5 (human) (UniProt Q99683)
MAPK13 (human) = MAPK13 (human) (UniProt O15264)
MKNK2 (human) = MKNK2 (human) (UniProt Q9HBH9)
MYO3B (human) = MYO3B (human) (UniProt Q8WXR4)
NEK2 (human) = NEK2 (human) (UniProt P51955)
NEK3 (human) = NEK3 (human) (UniProt P51956)
NEK7 (human) = NEK7 (human) (UniProt Q8TDX7)
NTRK3 (human) = NTRK3 (human) (UniProt Q16288)
NUAK2 (human) = NUAK2 (human) (UniProt Q9H093)
PAK2 (human) = PAK2 (human) (UniProt Q13177)
[2] = test system: PIK3CA (human), P42336 [H1047L]
PIP4K2C (human) = PIP4K2C (human) (UniProt Q8TBX8)
[3] = test system: RET (human), P07949 [V804M]
RPS6KA5 KD2 (human) = RPS6KA5 KD2 (human) (UniProt O75582)
SGK110 (human) = SGK110 (human) (UniProt P0C264)
STK11 (human) = STK11 (human) (UniProt Q15831)
STK32C (human) = STK32C (human) (UniProt Q86UX6)
STK33 (human) = STK33 (human) (UniProt Q9BYT3)
STK39 (human) = STK39 (human) (UniProt Q9UEW8)
SYK (human) = SYK (human) (UniProt P43405)
TESK1 (human) = TESK1 (human) (UniProt Q15569)
TNK1 (human) = TNK1 (human) (UniProt Q13470)
WEE1 (human) = WEE1 (human) (UniProt P30291)
DAPK2 (human) = DAPK2 (human) (UniProt Q9UIK4)
RPS6KB1 (human) = RPS6KB1 (human) (UniProt P23443)

Sequence of ALK (human) (Q9UM73 whole entry, looked up): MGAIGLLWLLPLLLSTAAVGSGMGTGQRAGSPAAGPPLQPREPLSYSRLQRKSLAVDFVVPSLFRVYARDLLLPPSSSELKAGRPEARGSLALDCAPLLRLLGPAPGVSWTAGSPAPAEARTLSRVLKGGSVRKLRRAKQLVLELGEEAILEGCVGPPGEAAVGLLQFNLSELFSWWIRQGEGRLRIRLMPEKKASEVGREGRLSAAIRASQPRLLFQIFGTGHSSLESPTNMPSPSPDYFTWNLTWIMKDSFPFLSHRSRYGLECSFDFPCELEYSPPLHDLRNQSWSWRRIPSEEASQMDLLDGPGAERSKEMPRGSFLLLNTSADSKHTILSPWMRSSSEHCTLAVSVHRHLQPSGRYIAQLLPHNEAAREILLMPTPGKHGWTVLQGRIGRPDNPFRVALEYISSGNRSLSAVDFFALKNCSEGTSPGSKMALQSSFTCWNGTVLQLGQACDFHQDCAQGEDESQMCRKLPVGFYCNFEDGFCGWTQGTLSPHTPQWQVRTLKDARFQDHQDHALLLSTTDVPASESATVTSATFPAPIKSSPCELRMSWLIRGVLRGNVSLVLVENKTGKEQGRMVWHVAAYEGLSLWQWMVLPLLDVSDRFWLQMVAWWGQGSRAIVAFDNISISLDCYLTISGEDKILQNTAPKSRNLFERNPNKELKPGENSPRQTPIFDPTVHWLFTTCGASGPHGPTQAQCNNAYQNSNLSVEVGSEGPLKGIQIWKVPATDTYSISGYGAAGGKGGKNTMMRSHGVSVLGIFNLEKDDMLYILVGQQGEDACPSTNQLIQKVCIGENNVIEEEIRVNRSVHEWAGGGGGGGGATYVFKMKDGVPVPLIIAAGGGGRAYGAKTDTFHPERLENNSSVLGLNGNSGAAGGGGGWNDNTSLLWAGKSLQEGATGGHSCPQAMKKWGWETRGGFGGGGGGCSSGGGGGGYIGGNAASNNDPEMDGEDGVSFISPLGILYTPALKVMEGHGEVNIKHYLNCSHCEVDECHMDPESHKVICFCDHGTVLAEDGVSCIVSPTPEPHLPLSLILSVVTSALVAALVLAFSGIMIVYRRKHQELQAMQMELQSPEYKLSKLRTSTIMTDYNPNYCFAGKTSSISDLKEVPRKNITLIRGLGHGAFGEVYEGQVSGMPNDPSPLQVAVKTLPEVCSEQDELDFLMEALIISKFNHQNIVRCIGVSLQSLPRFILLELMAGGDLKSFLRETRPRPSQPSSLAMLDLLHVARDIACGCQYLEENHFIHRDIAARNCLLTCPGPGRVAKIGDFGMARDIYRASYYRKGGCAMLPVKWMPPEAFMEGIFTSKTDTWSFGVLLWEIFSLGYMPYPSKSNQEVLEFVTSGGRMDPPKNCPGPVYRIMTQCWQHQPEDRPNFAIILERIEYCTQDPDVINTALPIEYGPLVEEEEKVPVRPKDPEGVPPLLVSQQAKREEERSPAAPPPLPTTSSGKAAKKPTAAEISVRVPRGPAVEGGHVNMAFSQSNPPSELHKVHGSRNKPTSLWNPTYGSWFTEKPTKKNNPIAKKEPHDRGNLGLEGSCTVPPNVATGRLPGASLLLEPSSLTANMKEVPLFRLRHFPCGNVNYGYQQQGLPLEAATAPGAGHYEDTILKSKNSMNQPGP
Sequence of NUAK2 (human) (Q9H093 whole entry, looked up): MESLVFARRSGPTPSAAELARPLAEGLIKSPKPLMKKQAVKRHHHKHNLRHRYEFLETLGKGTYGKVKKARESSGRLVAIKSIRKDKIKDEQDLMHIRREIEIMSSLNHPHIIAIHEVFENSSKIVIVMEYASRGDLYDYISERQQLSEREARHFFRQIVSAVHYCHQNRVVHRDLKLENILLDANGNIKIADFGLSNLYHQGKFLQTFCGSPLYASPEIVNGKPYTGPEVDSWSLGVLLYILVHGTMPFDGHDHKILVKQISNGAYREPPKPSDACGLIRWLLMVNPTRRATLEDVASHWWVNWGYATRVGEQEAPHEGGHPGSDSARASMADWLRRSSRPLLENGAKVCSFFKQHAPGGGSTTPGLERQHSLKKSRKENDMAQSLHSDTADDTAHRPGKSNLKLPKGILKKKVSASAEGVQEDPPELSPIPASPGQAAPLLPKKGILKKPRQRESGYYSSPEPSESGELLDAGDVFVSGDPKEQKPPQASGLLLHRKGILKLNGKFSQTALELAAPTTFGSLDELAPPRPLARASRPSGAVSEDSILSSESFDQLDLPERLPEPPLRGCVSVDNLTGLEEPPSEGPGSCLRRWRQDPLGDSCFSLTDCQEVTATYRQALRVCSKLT
Sequence of MKNK2 (human) (Q9HBH9 whole entry, looked up): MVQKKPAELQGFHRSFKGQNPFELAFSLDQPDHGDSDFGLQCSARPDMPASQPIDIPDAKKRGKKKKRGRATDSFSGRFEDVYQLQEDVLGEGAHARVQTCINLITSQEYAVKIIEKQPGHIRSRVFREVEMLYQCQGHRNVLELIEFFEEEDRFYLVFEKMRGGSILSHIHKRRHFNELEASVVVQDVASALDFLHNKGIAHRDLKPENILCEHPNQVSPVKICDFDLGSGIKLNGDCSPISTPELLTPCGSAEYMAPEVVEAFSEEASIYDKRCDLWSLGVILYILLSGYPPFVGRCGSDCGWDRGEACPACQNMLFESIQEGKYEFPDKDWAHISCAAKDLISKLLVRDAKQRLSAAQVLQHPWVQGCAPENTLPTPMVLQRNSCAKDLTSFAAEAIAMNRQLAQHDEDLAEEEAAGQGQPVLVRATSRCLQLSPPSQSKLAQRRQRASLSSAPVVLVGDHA
Sequence of NEK2 (human) (P51955 whole entry, looked up): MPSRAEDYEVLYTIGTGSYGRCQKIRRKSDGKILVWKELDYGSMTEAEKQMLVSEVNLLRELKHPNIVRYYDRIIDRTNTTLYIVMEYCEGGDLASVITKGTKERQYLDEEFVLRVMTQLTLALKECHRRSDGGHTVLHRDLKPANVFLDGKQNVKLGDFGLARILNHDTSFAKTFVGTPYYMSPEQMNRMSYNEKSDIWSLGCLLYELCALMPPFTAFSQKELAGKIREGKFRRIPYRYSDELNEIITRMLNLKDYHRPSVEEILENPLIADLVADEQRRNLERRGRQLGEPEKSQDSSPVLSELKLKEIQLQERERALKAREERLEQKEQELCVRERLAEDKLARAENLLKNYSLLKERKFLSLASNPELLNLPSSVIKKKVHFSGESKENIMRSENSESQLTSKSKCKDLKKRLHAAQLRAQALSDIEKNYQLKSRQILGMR
Sequence of MAPK13 (human) (O15264 whole entry, looked up): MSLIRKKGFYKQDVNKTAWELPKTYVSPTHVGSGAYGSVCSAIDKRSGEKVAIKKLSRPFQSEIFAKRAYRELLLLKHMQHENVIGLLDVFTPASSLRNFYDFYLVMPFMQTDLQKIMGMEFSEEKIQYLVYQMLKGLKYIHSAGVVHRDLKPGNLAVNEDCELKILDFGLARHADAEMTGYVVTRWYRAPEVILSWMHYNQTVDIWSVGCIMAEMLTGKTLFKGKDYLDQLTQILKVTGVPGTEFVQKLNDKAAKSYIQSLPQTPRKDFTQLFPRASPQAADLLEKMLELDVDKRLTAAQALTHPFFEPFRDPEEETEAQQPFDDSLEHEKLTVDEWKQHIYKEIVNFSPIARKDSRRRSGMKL
Sequence of GSK3A (human) (P49840 whole entry, looked up): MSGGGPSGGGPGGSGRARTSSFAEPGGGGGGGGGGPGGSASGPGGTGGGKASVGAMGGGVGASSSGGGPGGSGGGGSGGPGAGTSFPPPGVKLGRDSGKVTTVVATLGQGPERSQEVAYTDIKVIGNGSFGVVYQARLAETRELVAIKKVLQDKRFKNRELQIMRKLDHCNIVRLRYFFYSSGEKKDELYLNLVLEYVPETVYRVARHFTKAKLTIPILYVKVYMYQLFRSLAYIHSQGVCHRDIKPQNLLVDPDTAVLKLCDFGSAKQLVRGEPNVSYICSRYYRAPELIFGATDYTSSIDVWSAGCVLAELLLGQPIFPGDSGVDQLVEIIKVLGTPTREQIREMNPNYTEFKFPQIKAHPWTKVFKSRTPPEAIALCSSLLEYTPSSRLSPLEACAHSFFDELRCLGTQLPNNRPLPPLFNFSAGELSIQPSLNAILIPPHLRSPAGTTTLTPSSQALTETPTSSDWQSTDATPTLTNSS
Sequence of STK32C (human) (Q86UX6 whole entry, looked up): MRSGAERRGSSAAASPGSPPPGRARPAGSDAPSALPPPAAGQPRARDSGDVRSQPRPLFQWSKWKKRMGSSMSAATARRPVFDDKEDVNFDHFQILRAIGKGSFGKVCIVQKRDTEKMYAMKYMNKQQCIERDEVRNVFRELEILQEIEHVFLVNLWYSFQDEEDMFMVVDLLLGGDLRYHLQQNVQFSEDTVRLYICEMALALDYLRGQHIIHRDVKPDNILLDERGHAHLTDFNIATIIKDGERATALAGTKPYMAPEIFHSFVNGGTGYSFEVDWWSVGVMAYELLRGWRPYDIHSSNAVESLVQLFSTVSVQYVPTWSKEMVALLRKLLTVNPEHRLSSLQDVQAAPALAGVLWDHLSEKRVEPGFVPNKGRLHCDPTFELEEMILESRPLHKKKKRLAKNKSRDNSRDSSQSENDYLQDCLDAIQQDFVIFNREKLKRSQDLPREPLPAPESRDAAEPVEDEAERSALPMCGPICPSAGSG
Sequence of GSK3B (human) (P49841 whole entry, looked up): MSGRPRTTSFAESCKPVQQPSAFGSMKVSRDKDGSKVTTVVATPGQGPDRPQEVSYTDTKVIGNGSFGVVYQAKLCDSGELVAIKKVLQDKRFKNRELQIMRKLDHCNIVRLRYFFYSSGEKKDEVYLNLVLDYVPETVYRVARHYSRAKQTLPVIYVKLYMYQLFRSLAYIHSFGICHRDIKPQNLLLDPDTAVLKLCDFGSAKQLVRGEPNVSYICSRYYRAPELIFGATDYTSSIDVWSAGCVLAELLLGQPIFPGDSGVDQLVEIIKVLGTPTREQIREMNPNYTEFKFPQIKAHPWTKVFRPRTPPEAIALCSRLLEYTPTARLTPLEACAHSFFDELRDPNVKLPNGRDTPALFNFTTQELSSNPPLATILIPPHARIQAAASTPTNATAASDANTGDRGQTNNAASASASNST

CCC(=O)N1CCN(c2ccc(-n3c(=O)ccc4cnc5ccc(-c6cnc7ccccc7c6)cc5c43)cc2C(F)(F)F)CC1
kinase still bound, per cent of control (AKT3 (human)): 77%
kinase still bound, per cent of control (ALK (human)): 80%
kinase still bound, per cent of control (BMPR2 (human)): 85%
per cent of control (CDK15 (human)): 88%
per cent of control (CDKL5 (human)): 100%
kinase still bound, per cent of control (CSK (human)): 71%
kinase still bound, per cent of control [1]: 100%
kinase still bound, per cent of control (EIF2AK1 (human)): 57%
kinase still bound, per cent of control (EIF2AK2 (human)): 88%
kinase still bound, per cent of control (ERBB3 (human)): 44%
kinase still bound, per cent of control (GSK3A (human)): 93%
kinase still bound, per cent of control (GSK3B (human)): 100%
kinase still bound, per cent of control (LATS2 (human)): 100%
kinase still bound, per cent of control (LIMK1 (human)): 15%
kinase still bound, per cent of control (MAP2K7 (human)): 100%
kinase still bound, per cent of control (MAP3K15 (human)): 100%
kinase still bound, per cent of control (MAP3K5 (human)): 100%
kinase still bound, per cent of control (MAPK13 (human)): 39%
kinase still bound, per cent of control (MKNK2 (human)): 54%
kinase still bound, per cent of control (MYO3B (human)): 100%
kinase still bound, per cent of control (NEK2 (human)): 90%
kinase still bound, per cent of control (NEK3 (human)): 100%
kinase still bound, per cent of control (NEK7 (human)): 90%
kinase still bound, per cent of control (NTRK3 (human)): 100%
kinase still bound, per cent of control (NUAK2 (human)): 100%
kinase still bound, per cent of control (PAK2 (human)): 100%
kinase still bound, per cent of control [2]: 2.6%
kinase still bound, per cent of control (PIP4K2C (human)): 58%
kinase still bound, per cent of control [3]: 69%
kinase still bound, per cent of control (RPS6KA5 KD2 (human)): 100%
kinase still bound, per cent of control (SGK110 (human)): 94%
kinase still bound, per cent of control (STK11 (human)): 100%
kinase still bound, per cent of control (STK32C (human)): 100%
kinase still bound, per cent of control (STK33 (human)): 90%
per cent of control (STK39 (human)): 100%
kinase still bound, per cent of control (SYK (human)): 78%
kinase still bound, per cent of control (TESK1 (human)): 58%
kinase still bound, per cent of control (TNK1 (human)): 6.8%
kinase still bound, per cent of control (WEE1 (human)): 42%

CC(C)n1nc(-c2cc3cc(O)ccc3[nH]2)c2c(N)ncnc21
kinase still bound, per cent of control (AKT3 (human)): 29%
kinase still bound, per cent of control (ALK (human)): 41%
kinase still bound, per cent of control (BMPR2 (human)): 0.1%
per cent of control (CDK15 (human)): 96%
per cent of control (CDKL5 (human)): 100%
kinase still bound, per cent of control (CSK (human)): 15%
kinase still bound, per cent of control (DAPK2 (human)): 3.8%
kinase still bound, per cent of control (EIF2AK1 (human)): 93%
kinase still bound, per cent of control (EIF2AK2 (human)): 48%
kinase still bound, per cent of control (ERBB3 (human)): 0%
kinase still bound, per cent of control (GSK3A (human)): 74%
kinase still bound, per cent of control (GSK3B (human)): 91%
kinase still bound, per cent of control (LATS2 (human)): 41%
kinase still bound, per cent of control (LIMK1 (human)): 73%
kinase still bound, per cent of control (MAP2K7 (human)): 75%
kinase still bound, per cent of control (MAP3K15 (human)): 76%
kinase still bound, per cent of control (MAP3K5 (human)): 100%
kinase still bound, per cent of control (MAPK13 (human)): 97%
kinase still bound, per cent of control (MKNK2 (human)): 4.5%
kinase still bound, per cent of control (MYO3B (human)): 19%
kinase still bound, per cent of control (NEK2 (human)): 75%
kinase still bound, per cent of control (NEK3 (human)): 55%
kinase still bound, per cent of control (NEK7 (human)): 100%
kinase still bound, per cent of control (NTRK3 (human)): 49%
kinase still bound, per cent of control (NUAK2 (human)): 9.2%
kinase still bound, per cent of control (PAK2 (human)): 31%
kinase still bound, per cent of control (PIP4K2C (human)): 9.9%
kinase still bound, per cent of control [3]: 12%
kinase still bound, per cent of control (RPS6KA5 KD2 (human)): 22%
kinase still bound, per cent of control (RPS6KB1 (human)): 57%
kinase still bound, per cent of control (SGK110 (human)): 100%
kinase still bound, per cent of control (STK11 (human)): 79%
kinase still bound, per cent of control (STK32C (human)): 69%
kinase still bound, per cent of control (STK33 (human)): 45%
per cent of control (STK39 (human)): 97%
kinase still bound, per cent of control (SYK (human)): 100%
kinase still bound, per cent of control (TESK1 (human)): 17%
kinase still bound, per cent of control (TNK1 (human)): 34%
kinase still bound, per cent of control (WEE1 (human)): 72%

COC(=O)Nc1ccc(-c2nc(N3CCOCC3)c3cnn(C4CCN(C(=O)OC)CC4)c3n2)cc1
kinase still bound, per cent of control (AKT3 (human)): 100%
kinase still bound, per cent of control (ALK (human)): 100%
kinase still bound, per cent of control (BMPR2 (human)): 92%
per cent of control (CDK15 (human)): 100%
per cent of control (CDKL5 (human)): 100%
kinase still bound, per cent of control (CSK (human)): 98%
kinase still bound, per cent of control (DAPK2 (human)): 96%
kinase still bound, per cent of control [1]: 100%
kinase still bound, per cent of control (EIF2AK1 (human)): 56%
kinase still bound, per cent of control (EIF2AK2 (human)): 100%
kinase still bound, per cent of control (ERBB3 (human)): 100%
kinase still bound, per cent of control (GSK3A (human)): 100%
kinase still bound, per cent of control (GSK3B (human)): 100%
kinase still bound, per cent of control (LATS2 (human)): 86%
kinase still bound, per cent of control (LIMK1 (human)): 100%
kinase still bound, per cent of control (MAP2K7 (human)): 100%
kinase still bound, per cent of control (MAP3K15 (human)): 96%
kinase still bound, per cent of control (MAP3K5 (human)): 100%
kinase still bound, per cent of control (MAPK13 (human)): 0%
kinase still bound, per cent of control (MKNK2 (human)): 40%
kinase still bound, per cent of control (MYO3B (human)): 97%
kinase still bound, per cent of control (NEK2 (human)): 100%
kinase still bound, per cent of control (NEK3 (human)): 100%
kinase still bound, per cent of control (NEK7 (human)): 77%
kinase still bound, per cent of control (NTRK3 (human)): 100%
kinase still bound, per cent of control (NUAK2 (human)): 84%
kinase still bound, per cent of control (PAK2 (human)): 91%
kinase still bound, per cent of control [2]: 12%
kinase still bound, per cent of control (PIP4K2C (human)): 12%
kinase still bound, per cent of control [3]: 100%
kinase still bound, per cent of control (RPS6KA5 KD2 (human)): 88%
kinase still bound, per cent of control (RPS6KB1 (human)): 86%
kinase still bound, per cent of control (SGK110 (human)): 92%
kinase still bound, per cent of control (STK11 (human)): 100%
kinase still bound, per cent of control (STK32C (human)): 89%
kinase still bound, per cent of control (STK33 (human)): 84%
per cent of control (STK39 (human)): 67%
kinase still bound, per cent of control (SYK (human)): 83%
kinase still bound, per cent of control (TESK1 (human)): 91%
kinase still bound, per cent of control (TNK1 (human)): 100%
kinase still bound, per cent of control (WEE1 (human)): 100%

— the kinase profiling compilation of Christmann-Franck et al. (2016)
